Three molecules from publication PMC12412044, “The Role of LVV‐H7 in Alcohol‐Induced Reward Mechanisms” (Addiction Biology, 2025) can be followed below.

“Also recorded” adds a separate entry of the source.

Data set [1] can be described thus: Blood–brain barrier permeability of fluorescently labelled compounds, fluorescence microscopy of brain sections. Type of data set: in vivo, rat. Conditions: pepstatin conjugated with carboxyfluorescein and LVV-H7 tagged with Dansyl, given i.p. to rats; brain tissue sections, fluorescence microscopy 10×. As to the method:
(§1) LVV‐H7 was dissolved in 0.9% NaCl and administered intraperitoneally (i.p.) 15 min before experiments at doses of 0.5 and 1 mg/kg. Control groups received 0.9% NaCl injections in an equivalent volume and by the same route. Pepstatin (Sigma‐Aldrich) was dissolved in 0.9% NaCl and administered i.p. at 10 mg/kg. Ethanol (95% w/v, Polmos; Poznan, Poland) was diluted with 0.9% NaCl to a 15% w/v concentration. In the CPP procedure, ethanol at doses of 1 or 1.5 g/kg (15% w/v) was administered i.p. before each conditioning phase.
The fluorescent analogue of pepstatin was synthesized on the Tentagel S RAM resin. At first, the Fmoc‐Lys (Mtt)‐OH was introduced using COMU/DIPEA, according to the procedure described above. To remove the Mtt group, the dried resin was treated with the TFE/HFIP/TIS/DCM mixture: 1:2:0.5:6.5 (v/v). Labelling with 5(6)‐carboxyfluorescein was performed with 5(6)‐carboxyfluorescein/HOBt/DIC in a molar ratio of 1:1:1. […] The high‐resolution MS characterized the probe, and preparative HPLC assessed its purity.
We investigated the ability of synthesized LVV‐H7 and pepstatin to cross the blood–brain barrier (BBB). […] Brain tissue samples from treated rats were then analysed using fluorescence microscopy.
FIGURE 3 Rat brain sections under visible light and fluorescence microscopy 10×: (a) pepstatin labelled with carboxyfluorescein, (b) LVV‐H7 labelled with Dansyl.

The test system of another data set is male Wistar rats. Description: Ethanol conditioned place preference (CPP) test. The format is in vivo, rat. The protocol:
All conducted experiments used male Wistar rats (Experimental Medicine Center, Lublin, Poland) weighing 220 ± 20 g. The animals were housed under standard laboratory conditions (22°C, 12:12‐h light–dark cycle; light on at 8:00 AM) in groups of four rats per cage. The animals were allowed 7 days for acclimation before experiments with access to standard food (Bacutil; Motycz, Poland) and water ad libitum. After 7 days of adaptation and handling, the animals were divided into groups of 7–8 and prepared for the tests. Behavioural experiments were carried out according to the National Institute of Health Guidelines for the Care and Use of Laboratory Animals and the European Community Council Directive for Care and Use of Laboratory Animals (86/609/EEC). The Local Ethics Committee approved them. Additionally, we confirm that ARRIVE guidelines report the study.
as §1
In our experiments, eight identical rectangular CPP boxes (60 cm × 35 cm × 30 cm), each one composed of three compartments: two large compartments (25 cm × 35 cm) and a smaller central grey compartment (10 cm × 10 cm), were used. In one of the compartments, the inside walls were white, and the floor held a large grid, whereas the walls of the other compartment were painted black, and the floor held a narrow grid. Illumination in the testing room was adjusted so that the environmental (visual and tactile) cues would not produce a significant baseline preference for a specific compartment. Both large compartments were separated from a central grey area by the removable guillotine doors, the opening of which provided access to the larger compartments. The apparatus was thoroughly cleaned between each test procedure and then wiped with dry paper towels to neutralize odour traces. […] The CPP performance was measured by computerized video tracking.
The CPP paradigm was carried out according to an unbiased procedure with minor modifications. […] The time spent in each compartment was measured during the pre‐test phase. […]
During the second phase (pre‐conditioning test), 24 h after the habituation session, rats were placed in the central grey square compartment of the CPP apparatus with free access to all compartments for 15 min. The time spent in each compartment was recorded with a computer programme. […]

Data set [2] relates to μ‐opioid receptor (OPRM1). The data set can be described thus: Western blot densitometry of OPRM1 expression in CNS structures after the CPP test. Type of data set: in vivo, rat. Conditions: ethanol alone versus control. The protocol:
(§2) Brain structures and spinal cords isolated from the animals were homogenized in 50 μL of the buffer consisting of 50 mM Tris/HCl, pH 7.6 and 150 mM NaCl in the presence of a proteinase inhibitor cocktail (Roche). Cells were homogenized thrice on ice by sonication (5 s each). The homogenate was centrifuged at 25 000g for 30 min at 4°C. The final protein concentration in the supernatant was determined using a Bradford assay kit (Sigma‐Aldrich).
(§3) One‐dimensional polyacrylamide gel electrophoresis was performed after standardizing the samples according to their total protein concentration. Thirty microlitres of the Laemmli sample buffer (Bio‐Rad, USA) were added to the subsequent volume of each sample, followed by incubation for 5 min at 90°C in a Thermomixer (Eppendorf). According to the Bio‐Rad protocol, proteins were separated on the 10% SDS‐PAGE.
(§4) Mini Protean system and electrotransferred onto the PVDF membrane (Bio‐Rad, USA). The adequate antibodies confirmed the presence of proteins (Biorbyt, UK). […]
(§5) Protein expression levels were measured using standard Western blotting. SDS‐PAGE was performed after standardizing protein extracts based on total protein concentration (determined via the Bradford method), immunotransfer, and immunodetection. Densitometric analysis was conducted to quantify protein levels in all structures from five animals. […]

For the next data set, the system named is NMDA receptor (NMDAR1). Description: Western blot densitometry of NMDA receptor expression in CNS structures after the CPP test. Type of data set: in vivo, rat. Conditions: ethanol alone versus control. As to the method:
as §2, §3, §4, §5

A further data set relates to DARPP‐32. Description: Western blot densitometry of DARPP‐32 expression in CNS structures after the CPP test. The format is in vivo, rat. The following applies: alcohol alone. The protocol:
as §2, §3, §4, §5

In the case of pepstatin, the “ability to cross the blood–brain barrier (BBB)” value in data set [1] is reported as “successfully cross the BBB”. Besides, the “expression of ethanol-CPP after pepstatin pretreatment” value in the data set with male Wistar rats (pepstatin 10 mg/kg i.p. 5 min before each ethanol injection (1.5 g/kg, 15% w/v, i.p.) during 10-day conditioning, p < 0.001) is on record as “significantly blocked the expression of ethanol‐CPP”. In addition, the “time spent in the drug-associated compartment, pepstatin given alone” value in the data set with male Wistar rats (pepstatin 10 mg/kg i.p. before each conditioning session, no ethanol, versus 0.9% NaCl) is reported as “did not change the time spent”.

Regarding `CCO` [ethanol], in the data set with male Wistar rats (ethanol 1.0 g/kg i.p., 10-day conditioning, versus 0.9% NaCl group), the “time spent in the drug-associated compartment on the CPP test day” value is listed as “did not change the time spent; also recorded: did not evoke any rewarding effects”. Moreover, the “time spent in the drug-paired compartment on the CPP test day (expression of ethanol-induced CPP)” value with male Wistar rats (ethanol 1.5 g/kg (15% w/v) i.p., 10-day conditioning, versus 0.9% NaCl group) is on record as “spent significantly more time”. Moreover, the “OPRM1 expression following EtOH administration” value in data set [2] is reported as “statistically significant upregulation”. Also, the “NMDA receptor expression following EtOH administration” value in the data set with NMDA receptor (NMDAR1) is “statistically significant upregulation”. The “DARPP-32 expression after alcohol administration” value in the data set on DARPP‐32 was “upregulation”.

Take `CC(C)C[C@H](N)C(=O)N[C@H](C(=O)N[C@H](C(=O)N[C@@H](Cc1ccc(O)cc1)C(=O)N1CCC[C@H]1C(=O)N[C@@H](Cc1c[nH]c2ccccc12)C(=O)N[C@H](C(=O)N[C@@H](CCC(N)=O)C(=O)N[C@@H](CCCNC(=N)N)C(=O)N[C@@H](Cc1ccccc1)C(=O)O)[C@@H](C)O)C(C)C)C(C)C` [LVV‐H7, LVV‐hemorphin‐7]: the “ability to cross the blood–brain barrier (BBB)” value in data set [1] was “successfully cross the BBB”. In addition, the “enzyme involved in the production of fragment VV-H7” value (proteins identified in active Fraction 29 of spinal cord homogenate, nanoLC-MALDI-MS/MS) is reported as “puromycin‐sensitive aminopeptidase (PSA)”. The “degradation products of LVV-H7 after incubation with homogenates” value (rat spinal cord homogenate, DEAE fractions, LVV-hemorphin 60 μg/mL, 10 μL in 40 μL, Tris–HCl pH 7.4, 37°C, 1 h, read-out mass spectrometry) is “VVYPWTQRF, YPWTQRF, PWTQRF and LVVYPWTQR fragments were mainly revealed”.
